Measured values taken from paper PMC7461116, “Synthesis, Anticonvulsant and Antinociceptive Activity of New Hybrid Compounds: Derivatives of 3-(3-Methylthiophen-2-yl)-pyrrolidine-2,5-dione” (International Journal of Molecular Sciences, 2020).
Where a name gives a salt, the structure may show the parent alone.

What was measured:
[1] = test system: maximal electroshock seizures; experiment: Maximal electroshock seizure (MES) test; assay type: in vivo, mice; details: Mus musculus; mice, ip, 100 mg/kg, 0.5 h; read-out: MES: number of mice protected/number of mice tested (converted)
Description: The MES test was performed as previously described. Stimuli (25 mA, 0.2 s, 50 Hz) were generated by a constant current stimulator (Rodent shocker, Type 221, Hugo Sachs Elektronik, Germany) and delivered with the use of auricular electrodes. During the stimulation, each mouse was restrained manually, and immediately after the stimulation gently released for observation. The endpoint was the tonic extension of the hind limbs. Mice not displaying hindlimb tonic extension were considered to be protected from seizure. The initial anticonvulsant screening of the tested compounds was performed at a fixed dose of 100 mg/kg (four mice per group). […] To evaluate the ED50, at least three groups of animals were injected with various doses of tested compounds. Each group consisted of six animals.

[2] = test system: 6 Hz psychomotor seizures; experiment: 6 Hz (32 mA) psychomotor seizure test; assay type: in vivo, mice; details: 32 mA
Excerpt: Psychomotor seizures were induced via corneal stimulation (6 Hz, 32 mA, 0.2 ms rectangular pulse width, 3 s duration) using a constant-current device (ECT Unit 57800, Ugo Basile, Italy). A drop of 1% solution of lidocaine hydrochloride was applied to the mouse corneas before stimulation to provide local anesthesia and ensure optimal current conductivity. After the electrical stimulation, mice were gently released and observed for the presence or absence of seizure activity, being characterized by immobility associated with rearing, forelimb clonus, twitching of the vibrissae, stun, and Straub-tail. Lack of the above symptoms or their cessation within 10 s from the stimulation was considered as absence of seizure activity. The initial anticonvulsant screening of the tested compounds was performed at a fixed dose of 100 mg/kg (four mice per group). Then ED50 was calculated for active compounds as described above.

[3] = test system: PTZ-induced clonic seizures; experiment: Subcutaneous pentylenetetrazole (scPTZ) seizure test; assay type: in vivo; details: mice, 100 mg/kg
Description: Clonic convulsions were induced by the subcutaneous (sc) administration of PTZ at a dose of 100 mg/kg. After PTZ injection, the mice were placed separately and observed during the next 30 min for the occurrence of clonic seizures. Clonic seizures were defined as clonus of the whole body lasting more than 3 s, with an accompanying loss of righting reflex. The latency to first clonus, the number of seizure episodes, and mortality rate were noted and compared with vehicle-treated and drug-treated groups. The absence of clonic convulsions within the observed time period was interpreted as the compound’s ability to protect against PTZ-induced seizures.

[4] = test system: motor impairment on rotarod; experiment: Rotarod test (acute neurotoxicity, NT); assay type: in vivo; details: ip, 100 mg/kg, 0.5 h
Description: In this test mice were trained to balance on an accelerating rotarod that rotated at 10 rotations per minute (Rotarod apparatus, May Commat RR0711, Turkey; rod diameter: 3 cm). During the training session, the animals were placed on a rotating rod for 3 min with an unlimited number of trials. Proper experiment was conducted 24 h after the training trial. On the test day, trained mice were intraperitoneally pretreated with the test compound at a dose of 100 mg/kg and just before the MES test were tested on the rotarod. Neurotoxicity was indicated by the inability of the animal to maintain equilibration on the rod for 1 min. […] Each group consisted of six animals.

[5] = test system: acetic acid-induced writhing behavior; experiment: Acetic acid-induced writhing test; assay type: in vivo; details: mice, ip
Description: Mice were injected with the test compound or vehicle by intraperitoneally route (ip), and 30 min later, 0.9 % acetic acid solution was injected ip and the animals were placed into the glass beakers. The writhing response (lengthwise stretching of the torso, concave arching of the back, and extension of the hind limbs) was recorded for 30 min. The analgesic effect of the tested substances was determined by a decrease in the number of writhes observed and the results were expressed as percent inhibition of writhing behavior (as index of analgesia), and was calculated using the following formula: %Inhibition=(NA−NB)/NA×100, where NA—number of writhes in vehicle group, NB—number of writhes in drug-treated group.

[6] = test system: latency time to pain reaction; experiment: Hot plate test; assay type: in vivo; details: mice, ip, 30 mg/kg
Description: The hot plate test was carried out based on the Eddy and Leimbach (1953) method. In this test, the apparatus was equipped with an electrically heated surface with a temperature controller that maintains surface temperature to a set point. Herein, the temperature was set at 55 °C. The animals were treated ip either with the test compounds, or vehicle 30 min before placing the animal on a hot plate apparatus. Latency time to pain reaction, i.e., the time until the animal licked its back paws or jumped was recorded by means of the stopwatch.

[7] = test system: Voltage-Sensitive Na+ Channel (site 2); experiment: Radioligand binding, [3H]BTX, Cerep; details: 100 µM, rat cerebral cortex synaptoneurosomal preparations
Description: (§1) Binding and functional studies were performed commercially in Cerep Laboratories (Poitiers, France) using testing procedures described elsewhere (Na^+ channel-site 2 [27], L-type Ca^2+ channel, dihydropyridine site, TRPV1 (VR1) (h) (antagonist effect), GABA transporter (GAT)). All experiments were performed in duplicate.

[8] = test system: Voltage-Sensitive Ca2+ Channel L-type (dihydropyridine site); experiment: Radioligand binding, [3H]nitrendipine, Cerep; details: 100 µM, rat cerebral cortex synaptoneurosomal preparations
Description: as §1

GABA Transporter (GAT) = experiment: Radioligand binding, [3H]GABA, Cerep; details: 100 µM, rat cerebral cortex synaptoneurosomal preparations
Description: as §1

TRPV1 receptor = target: T1, TRPV1 receptor (Homo sapiens, UniProt Q8NER1); experiment: TRPV1 (VR1) (h) antagonist effect, Cerep; assay type: biochemical; details: 100 µM
T1 construct: Cerep Laboratories (Poitiers, France)
Description: as §1

[9] = Hepatotoxicity, PrestoBlue viability assay; assay type: cell-based, human; details: human, Hep G2 cells, 1–100 μM, read-out: Hep G2 cell viability
Description: Hepatotoxicity of tested compounds was assessed in PrestoBlue (Thermo Fisher Scientific, Waltham, MA, USA) Experiments on microplate reader (SpectraMax® iD3, Molecular Devices, San Jose, CA, USA) using human hepatocellular carcinoma cells (Hep G2) ATCC® […]. The cells were cultured in standard conditions (37 °C, 5% CO2), in Dulbecco’s Modified Eagle’s Medium-high glucose, (DMEM, Gibco, Thermo Fisher Scientific, Waltham, MA, USA) supplemented with 10% fetal bovine serum (Thermo Fisher Scientific, Waltham, MA, USA), with added 100 IU/mL penicillin (Sigma Aldrich, Steinheim, Germany) and 100 µg/mL streptomycin (Sigma Aldrich). PrestoBlue reagent is a resazurin-based solution that functions as a cell viability indicator. Metabolically active cells are capable of reducing the PrestoBlue reagent, with the colorimetric changes used as an indicator to quantify the viability of cells in culture. This change can be determined by measuring the fluorescence. After 24 h of incubation with the compounds PrestoBlue reagent was added to wells of a microplate. After 20 min of incubation at 37 °C, the fluorescence intensity (EX 530; EM 580 nm) was measured in a plate reader. Viability values were calculated as a percentage of live cells with respect to the control sample (DMSO). The negative control was medium without cells. Astemizole was used as a reference substance.

[10] = Rotarod test (acute neurotoxicity, NT); details: mouse, in vivo, mice ip
[11] = test system: maximal electroshock seizures; details: cited from earlier work
[12] = test system: PTZ-induced clonic seizures; parameters: method as in PMID 25933955; details: cited from earlier work
[13] = test system: latency time to pain reaction; parameters: method as in PMID 25933955; details: cited from earlier work
[14] = test system: motor impairment on rotarod; details: cited from earlier work

T1 sequence (Q8NER1 whole entry): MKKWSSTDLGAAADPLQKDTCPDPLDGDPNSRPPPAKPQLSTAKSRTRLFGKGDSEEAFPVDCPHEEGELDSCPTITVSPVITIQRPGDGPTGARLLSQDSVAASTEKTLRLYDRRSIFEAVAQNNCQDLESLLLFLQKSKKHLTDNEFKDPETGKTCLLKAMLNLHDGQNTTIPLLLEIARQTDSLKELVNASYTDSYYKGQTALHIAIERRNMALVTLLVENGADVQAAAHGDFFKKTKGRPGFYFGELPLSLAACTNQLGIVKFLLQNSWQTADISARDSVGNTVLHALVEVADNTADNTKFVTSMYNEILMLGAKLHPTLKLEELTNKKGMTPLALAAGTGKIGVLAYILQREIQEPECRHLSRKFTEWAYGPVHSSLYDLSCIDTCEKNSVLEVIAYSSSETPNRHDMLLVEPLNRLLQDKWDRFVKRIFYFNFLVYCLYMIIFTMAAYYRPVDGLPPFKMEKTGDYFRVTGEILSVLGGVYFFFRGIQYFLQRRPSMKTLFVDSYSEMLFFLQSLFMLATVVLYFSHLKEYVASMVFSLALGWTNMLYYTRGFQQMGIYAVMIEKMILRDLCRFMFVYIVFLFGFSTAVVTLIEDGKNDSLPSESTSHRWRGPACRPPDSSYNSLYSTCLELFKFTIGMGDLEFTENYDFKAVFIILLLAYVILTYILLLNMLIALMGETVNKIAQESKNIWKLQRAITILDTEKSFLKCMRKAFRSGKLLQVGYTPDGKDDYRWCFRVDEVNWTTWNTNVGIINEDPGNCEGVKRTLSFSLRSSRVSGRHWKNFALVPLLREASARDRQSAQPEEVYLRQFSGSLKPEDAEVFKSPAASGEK

Cc1ccsc1C1CC(=O)N(CCN2CCOCC2)C1=O (racemic) [Compound 3, (R,S)-3-(3-Methylthiophen-2-yl)-1-(2-morpholinoethyl)pyrrolidine-2,5-dione hydrochloride]
responders at 100 mg/kg [1]: 25% | ED50 ([2]; Mus musculus, mice ip, 95% confidence limit in brackets): 74.3 mg/kg | responders at 100 mg/kg ([2]; Mus musculus, mice, ip, 100 mg/kg, 0.5 h, read-out: 6 Hz: number of mice protected/number of mice tested (converted)): 100% | 6 Hz: tested animals protected ([2]; mice, ip, 100 mg/kg, 0.5 h): 100% | scPTZ: tested animals protected [3]: 50% | scPTZ: latency time to first seizure episode ([3]; control 436.8 ± 91.94 s): 1435 ± 234.9 s | scPTZ: prolongation of latency time to first seizure episode ([3]; vs control, p < 0.001): 228% | NT: number of mice with motor impairment/number of mice tested [4]: 0/4 | Reduction of number of writhes (inhibition of writhing behavior) ([5]; 30 mg/kg): 34% | Reduction of number of writhes (inhibition of writhing behavior) ([5]; 45 mg/kg): 39% | Hot plate: prolongation of latency time to pain reaction [6]: inactive | % Inhibition of Control Specific Binding, Voltage-Sensitive Na+ Channel (site 2) [7]: 15.6% | % Inhibition of Control Specific Binding, Voltage-Sensitive Ca2+ Channel L-typ [8]: −1.1% | % Inhibition of Control Specific Binding, GABA Transporter (GAT) (GABA Transporter (GAT)): −1.1% | TRPV1 antagonist effect (TRPV1 receptor): 14.8% | viability at 24 h [9]: > 94% | TD50 at 0.5 h [10]: > 200 mg/kg

Cc1ccsc1C(=CCCN1CCC[C@@H](C(=O)O)C1)c1sccc1C [tiagabine]
MES: protection in words [11]: did not show protection | scPTZ: activity in words [12]: active | Hot plate: dose at which analgesic activity was observed [13]: 8 mg/kg | Rotarod: motor impairment in words [14]: significant motor impairment
